Source: the NIST ThermoML archive (doi:10.1021/je101012n)

Experiment: mn = molality of the nth substance listed, in mol/kg
Conditions: 101 kPa, Liquid, Alternating current cell with electrodes

O=[N+]([O-])[O-].O=[N+]([O-])[O-].O=[N+]([O-])[O-].[Al+3] [aluminum trinitrate] + O
electrical conductivity [S/m]
Conditions	278.1 K	283.1 K	298.15 K	308.15 K	318.15 K	343.15 K	363.15 K
m1 = 8.8e-05	–	–	–	–	–	0.09049	0.1042
m1 = 0.000883	0.05671	0.06384	0.08484	0.09898	0.1135	0.1533	0.1872
m1 = 0.00871	0.2168	0.2457	0.3424	0.411	0.4827	0.6932	0.8941
m1 = 0.0881	1.551	1.706	2.378	2.873	3.387	4.867	5.923
m1 = 0.158	2.511	2.826	3.913	4.788	5.595	7.689	9.698

Cl.N [ammonium chloride (NH4Cl)] + O
electrical conductivity [S/m]
Conditions	278.15 K	283.15 K	298.15 K	308.15 K	318.15 K	343.15 K	363.15 K
m1 = 0.000977	0.008892	0.01017	0.01441	0.01738	0.02024	0.0287	0.03591
m1 = 0.00965	0.0856	0.09786	0.1381	0.1671	0.1938	0.2731	0.3363
m1 = 0.09765	0.7999	0.9148	1.276	1.545	1.801	2.535	3.142
m1 = 0.4735	3.542	4.027	5.525	6.577	7.691	10.75	13.26
m1 = 1.034	7.301	8.293	11.12	13.13	15.36	21.55	25.35

[Ba+2].[Cl-].[Cl-] [barium chloride] + O
electrical conductivity [S/m]
Conditions	278.15 K	283.15 K	298.15 K	308.15 K	318.15 K	343.15 K	363.15 K
m1 = 9.2e-05	0.001632	0.00188	0.002597	0.003085	0.003626	0.005187	0.00644
m1 = 0.0011	0.01799	0.0206	0.02897	0.03508	0.04141	0.05911	0.07372
m1 = 0.00896	0.1386	0.1585	0.2229	0.2681	0.3161	0.4493	0.5593
m1 = 0.1029	1.366	1.553	2.167	2.588	3.034	4.247	4.814
m1 = 0.31	3.657	4.127	5.589	6.794	7.859	10.32	12.51

[Ca+2].[Cl-].[Cl-] [calcium chloride] + O
electrical conductivity [S/m]
Conditions	278.15 K	283.15 K	298.15 K	308.15 K	318.15 K	343.15 K	363.15 K
m1 = 7.6e-05	0.001256	0.001432	0.001998	0.002384	0.002814	0.004073	0.00517
m1 = 0.000755	0.01195	0.01369	0.01945	0.02351	0.02784	0.03992	0.05001
m1 = 0.00755	0.1103	0.1263	0.1792	0.216	0.2547	0.3636	0.4547
m1 = 0.0755	0.9331	1.062	1.496	1.793	2.11	2.982	3.694
m1 = 0.3773	4.179	4.73	6.531	7.792	9.092	12.66	15.58

O=S(=O)([O-])[O-].[Ca+2] [calcium sulfate] + O
electrical conductivity [S/m]
Conditions	278.15 K	283.15 K	298.15 K	308.15 K	318.15 K	343.15 K	363.15 K
m1 = 7.6e-05	0.00123	0.001409	0.001963	0.002529	0.003011	0.004223	0.00536
m1 = 0.00102	0.01397	0.01601	0.02275	0.02808	0.0325	0.04537	0.05546
m1 = 0.01245	0.1154	0.1331	0.185	0.2255	0.2573	0.3419	0.3973

[Cl-].[Cs+] [cesium chloride] + O
electrical conductivity [S/m]
Conditions	278.15 K	283.15 K	298.15 K	308.15 K	318.15 K	343.15 K	363.15 K
m1 = 0.000106	0.001018	0.001151	0.001597	0.001917	0.002242	0.003135	0.004007
m1 = 0.00101	0.009529	0.01089	0.0151	0.01817	0.02103	0.0293	0.03658
m1 = 0.01058	0.09738	0.1107	0.1539	0.185	0.2142	0.2972	0.3702
m1 = 0.1009	0.8548	0.9735	1.346	1.614	1.859	2.604	3.107
m1 = 0.4763	3.754	4.256	5.762	6.816	7.917	11.01	13.23
m1 = 1.09	8.303	9.355	12.29	14.25	16.55	22.98	26.87

O=S(=O)([O-])[O-].[Cs+].[Cs+] [cesium sulfate] + O
electrical conductivity [S/m]
Conditions	278.15 K	283.15 K	298.15 K	308.15 K	318.15 K	343.15 K	363.15 K
m1 = 0.000101	0.001962	0.002237	0.003069	0.003625	0.004233	0.006348	0.0078
m1 = 0.00105	0.01932	0.02195	0.0306	0.03666	0.04304	0.06181	0.07641
m1 = 0.01021	0.1676	0.1906	0.2654	0.3173	0.3716	0.5216	0.6438
m1 = 0.1047	1.358	1.539	2.124	2.529	2.958	4.094	5.022
m1 = 0.1836	2.24	2.528	3.468	4.119	4.792	6.59	8
m1 = 0.3588	4.083	4.58	6.204	7.32	8.463	11.58	13.73

O=[N+]([O-])[O-].O=[N+]([O-])[O-].[Cu+2] [copper dinitrate] + O
electrical conductivity [S/m]
Conditions	278.1 K	283.1 K	298.15 K	308.15 K	318.15 K	343.15 K	363.15 K
m1 = 0.0001	0.01101	0.01227	–	–	–	0.02684	0.0318
m1 = 0.0011	0.02486	0.02823	0.0388	0.04633	0.05303	0.07303	0.08992
m1 = 0.01032	0.1433	0.1641	0.2308	0.2795	0.3256	0.4628	0.5792
m1 = 0.1108	1.207	1.382	1.935	2.333	2.746	3.918	4.838
m1 = 0.3459	3.219	3.68	5.093	6.092	7.235	10.34	12.57
